1 molecule from patent US20060287353A1, “Method for preventing or treating ischemia-or hemorrhage-induced brain damage using a macrolide compound” (Astellas Pharma Inc., priority 1999, published 2006) can be followed below.

SMILES strings stand for the structures.

The subject of test [1] is rat endothelin-induced MCA occlusion model. The test can be described thus: Neuroprotective efficacy in the rat endothelin-induced MCA occlusion model (ET-1 model of stroke). It is filed as in vivo. Particulars: five minutes post-lesion, male Sprague Dawley rats, damage assessed three days post-lesion. As to the method:
Neuroprotective efficacy of the compound (I) in the rat endothelin-induced MCA occlusion model
The compound (I) was dissolved in a polyoxyethylene-hydrogenated castor oil 60/ethanol (400mg/1 ml) solution and administered at 1 and 3 mg.kg^−1. All drugs and relevant control were administered in a volume of 2 ml. kg^−1. MCA occlusion by the endothelin method was performed on male Sprague Dawley rats (271- 324g) as described in U.S. Pat. No. 5,648,351. All drugs were infused through the i.v. catheter at 1 ml min^−1, five minutes post-lesion. The animals were sacrificed by cardiac infusion under barbiturate anaesthesia. Volume of lesion was calculated from measured areas of damage (as assessed three days post-lesion) using the Trapezoid Rule. Results are presented as volume (mm^3)±SEM. Statistical analysis was performed using ANOVA and post hoc Student-Newman-Keuls test, where p<0.05 was set as an acceptable level for significance.

Test [2] is described as follows: Immunosuppressive activity (statement, no method described). Particulars: stated in text without test details.

`COC1CC(/C=C(\C)C2OC(=O)C3CCCCN3C(=O)C(=O)C3(O)OC(C(OC)CC(C)C/C(C)=C/C(CC(C)=O)C(=O)CC(O)C2C)C(OC)CC3C)CCC1O` (stereo not drawn) [compound (I)]: the “protection of the cortex (lesion volume) against vehicle” value in test [1] (1 mg.kg^-1 i.v., n=14) was 61%; in test [1] (3 mg.kg^-1 i.v., n=9), 42%. For the same molecule, the immunosuppressive activity result in test [2] is “no immunosuppressive activity”.
